PubChem BioAssay AID328 (DTP/NCI, 2004)
Several values for one entry are separate records, joined by “and”; a condition that tells them apart may be missing. Equal values may be shown once. Toxic doses and inconclusive results are not listed. Rule for the calls: active = survival T/C of 150% or more; inactive = T/C below 125% in these data.

Tested on: BDF1 mice, P388 leukemia ip, median survival T/C
Experiment: NCI In Vivo Anticancer Drug Screen. Data for tumor model P388 Leukemia (intraperitoneal) in B6D2F1 (BDF1) mice
Conditions: endpoint: median survival time, higher = longer survival
Outline: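 Transplantable tumour in mice; compound vs vehicle dosing; survival scored; ratio of treated to control reported.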

[1] = dose: 100.0 mg/kg/injection, schedule: Q01DX001 (ip), vehicle: Klucel (hydroxypropylcellulose) (HPC)
[2] = dose: 200.0 mg/kg/injection, schedule: Q01DX001 (ip), vehicle: Klucel (hydroxypropylcellulose) (HPC)
[3] = dose: 100.0 mg/kg/injection, schedule: Q01DX009 (ip), vehicle: saline
[4] = dose: 100.0 mg/kg/injection, schedule: Q04DX003 (ip), vehicle: saline
[5] = dose: 200.0 mg/kg/injection, schedule: Q01DX009 (ip), vehicle: saline
[6] = dose: 50.0 mg/kg/injection, schedule: Q01DX005 (ip), vehicle: saline with Tween-80
[7] = dose: 100.0 mg/kg/injection, schedule: Q01DX005 (ip), vehicle: saline with Tween-80
[8] = dose: 200.0 mg/kg/injection, schedule: Q01DX005 (ip), vehicle: saline with Tween-80
[9] = dose: 100.0 mg/kg/injection, schedule: Q01DX001 (ip), vehicle: saline with Tween-80
[10] = dose: 200.0 mg/kg/injection, schedule: Q01DX001 (ip), vehicle: saline with Tween-80
[11] = dose: 400.0 mg/kg/injection, schedule: Q01DX001 (ip), vehicle: saline with Tween-80
[12] = dose: 50.0 mg/kg/injection, schedule: Q01DX009 (ip), vehicle: saline with Tween-80
[13] = dose: 100.0 mg/kg/injection, schedule: Q01DX009 (ip), vehicle: saline with Tween-80
[14] = dose: 100.0 mg/kg/injection, schedule: Q04DX003 (ip), vehicle: saline with Tween-80
[15] = dose: 200.0 mg/kg/injection, schedule: Q04DX003 (ip), vehicle: saline with Tween-80
[16] = dose: 400.0 mg/kg/injection, schedule: Q04DX003 (ip), vehicle: saline with Tween-80
[17] = dose: 200.0 mg/kg/injection, schedule: Q01DX009 (ip), vehicle: saline with Tween-80
[18] = dose: 100.0 mg/kg/injection, schedule: Q04DX003 (ip), vehicle: Klucel (hydroxypropylcellulose) (HPC)

Measured: T/C

CCOC(=O)c1ccc(NCc2cccc([N+](=O)[O-])c2)cc1
inactive: [1] 115 % of control | [2] 100 % of control | dose: 400.0 mg/kg/injection, schedule: Q01DX001 (ip), vehicle: Klucel (hydroxypropylcellulose) (HPC) 93 % of control

O=C(O)c1cc2c(Br)cccc2c2cc(C(F)(F)F)ccc12
inactive: dose: 50.0 mg/kg/injection, schedule: Q04DX003 (ip), vehicle: saline sonified 95 % of control | dose: 100.0 mg/kg/injection, schedule: Q04DX003 (ip), vehicle: saline sonified 100 % of control | dose: 200.0 mg/kg/injection, schedule: Q04DX003 (ip), vehicle: saline sonified 100 % of control

C[N-]c1nnnn1C.[Au+].c1ccc([PH+](c2ccccc2)c2ccccc2)cc1
inactive: dose: 6.25 mg/kg/injection, schedule: Q01DX009 (ip), vehicle: saline with Tween-80 108 % of control | dose: 12.5 mg/kg/injection, schedule: Q01DX009 (ip), vehicle: saline with Tween-80 108 % of control | dose: 25.0 mg/kg/injection, schedule: Q01DX009 (ip), vehicle: saline with Tween-80 108 % of control

CC1([CH2][Hg][I])CS(=O)(=O)CC(C)([CH2][Hg][I])O1 (stereo not given)
inactive: dose: 5.0 mg/kg/injection, schedule: Q01DX010 (ip), vehicle: carboxymethylcellulose (CMC) 104 % of control | dose: 10.0 mg/kg/injection, schedule: Q01DX010 (ip), vehicle: carboxymethylcellulose (CMC) 109 % of control

O=S(O)OS(=O)O
inactive: dose: 90.0 mg/kg/injection, schedule: Q01DX009 (ip), vehicle: saline 105 % of control | [3] 100 % of control | [4] 96 % of control | dose: 133.0 mg/kg/injection, schedule: Q01DX009 (ip), vehicle: saline 95 % of control and 100 % of control | [5] 100 % of control and 116 % of control | dose: 200.0 mg/kg/injection, schedule: Q04DX003 (ip), vehicle: saline 92 % of control | dose: 400.0 mg/kg/injection, schedule: Q01DX009 (ip), vehicle: saline 104 % of control | dose: 400.0 mg/kg/injection, schedule: Q04DX003 (ip), vehicle: saline 96 % of control

OCCNCCN=Cc1ccccc1O
inactive: dose: 50.0 mg/kg/injection, schedule: Q01DX001 (ip), vehicle: saline sonified 87 % of control | dose: 100.0 mg/kg/injection, schedule: Q01DX001 (ip), vehicle: saline sonified 91 % of control | dose: 200.0 mg/kg/injection, schedule: Q01DX001 (ip), vehicle: saline sonified 100 % of control

Cc1ccc(OCc2c(COc3ccc(Cl)cc3)sc3ccc(Cl)cc23)cc1
inactive: dose: 12.5 mg/kg/injection, schedule: Q04DX003 (ip), vehicle: saline with Tween-80 95 % of control | dose: 25.0 mg/kg/injection, schedule: Q04DX003 (ip), vehicle: saline with Tween-80 87 % of control

COc1c2c(cc3oc4ccccc4c(=O)c13)CCCC2
inactive: [6] 100 % of control | [7] 96 % of control | [8] 87 % of control

CCc1oc(=O)c(Cc2c(OC(C)=O)cc(OC(C)=O)c3c2OC(c2ccccc2)CC3=O)c(OC(C)=O)c1C (stereo not given)
inactive: dose: 1.0 mg/kg/injection, schedule: Q01DX009 (ip), vehicle: Klucel (hydroxypropylcellulose) (HPC) 99 % of control | dose: 2.0 mg/kg/injection, schedule: Q01DX009 (ip), vehicle: Klucel (hydroxypropylcellulose) (HPC) 92 % of control | dose: 4.0 mg/kg/injection, schedule: Q01DX009 (ip), vehicle: Klucel (hydroxypropylcellulose) (HPC) 93 % of control | dose: 8.0 mg/kg/injection, schedule: Q01DX009 (ip), vehicle: Klucel (hydroxypropylcellulose) (HPC) 92 % of control

C=CCOc1ccc([N+](=O)[O-])cc1[N+](=O)[O-]
inactive: [9] 100 % of control | [10] 105 % of control | [11] 100 % of control

C=CCc1ccccc1CNC(C)(C)CO
inactive: [12] 103 % of control | [13] 103 % of control

CCOC(=O)C1(C)CCCCC1=O (stereo not given)
inactive: [14] 95 % of control | [15] 104 % of control | [16] 100 % of control

COC(=O)CCCCI
inactive: [6] 105 % of control | [7] 110 % of control | [8] 107 % of control

O=C(OC1(c2ccccc2)CCC1)c1cc([N+](=O)[O-])cc([N+](=O)[O-])c1
inactive: [9] 97 % of control | [10] 96 % of control | [11] 99 % of control

O=[N+]([O-])c1ccc(Sc2ccc([N+](=O)[O-])cc2)cc1
inactive: [12] 90 % of control | dose: 50.0 mg/kg/injection, schedule: Q04DX003 (ip), vehicle: saline with Tween-80 100 % of control | [13] 95 % of control | [17] 90 % of control | [15] 100 % of control

CCCC(C(=O)OCCN(CC)CC)(c1ccccc1)c1ccccc1
inactive: dose: 54.0 mg/kg/injection, schedule: Q01DX001 (ip), vehicle: saline 105 % of control | dose: 90.0 mg/kg/injection, schedule: Q01DX001 (ip), vehicle: saline 104 % of control | dose: 150.0 mg/kg/injection, schedule: Q01DX001 (ip), vehicle: saline 105 % of control

CSC(N)=Nc1cccc2c1CCCC2
inactive: dose: 50.0 mg/kg/injection, schedule: Q04DX003 (ip), vehicle: saline 108 % of control | [4] 108 % of control

CC1(C)CC(=O)NN1C(=O)c1ccccc1
inactive: [14] 100 % of control | [15] 105 % of control | [16] 95 % of control

N=C(N)SC(c1ccccc1)c1ccccc1
inactive: [1] 100 % of control | [2] 104 % of control

Cc1c(C(=O)CCl)c(=O)n(-c2ccccc2)n1C
inactive: dose: 25.0 mg/kg/injection, schedule: Q01DX009 (ip), vehicle: Klucel (hydroxypropylcellulose) (HPC) 100 % of control | dose: 25.0 mg/kg/injection, schedule: Q04DX003 (ip), vehicle: Klucel (hydroxypropylcellulose) (HPC) 96 % of control | dose: 50.0 mg/kg/injection, schedule: Q01DX009 (ip), vehicle: Klucel (hydroxypropylcellulose) (HPC) 104 % of control | dose: 50.0 mg/kg/injection, schedule: Q04DX003 (ip), vehicle: Klucel (hydroxypropylcellulose) (HPC) 100 % of control | dose: 100.0 mg/kg/injection, schedule: Q01DX009 (ip), vehicle: Klucel (hydroxypropylcellulose) (HPC) 91 % of control | [18] 100 % of control and 103 % of control

OC1CC2CC1C(Cl)C2Cl (stereo not given)
inactive: [12] 113 % of control | [13] 96 % of control | [17] 98 % of control

CCCNC(=O)Nc1cc(Cl)ccc1OC
inactive: [14] 95 % of control | [16] 95 % of control

c1ccc2c(c1)CCc1cc3c(nc1-2)-c1ccccc1CC3
inactive: [18] 112 % of control | dose: 400.0 mg/kg/injection, schedule: Q04DX003 (ip), vehicle: Klucel (hydroxypropylcellulose) (HPC) 112 % of control

FC(F)(F)c1nc2nccnc2[nH]1
inactive: dose: 50.0 mg/kg/injection, schedule: Q01DX009 (ip), vehicle: saline 100 % of control | [3] 100 % of control | [5] 108 % of control | dose: 200.0 mg/kg/injection, schedule: Q04DX003 (ip), vehicle: Klucel (hydroxypropylcellulose) (HPC) 88 % of control

CC(C)(C)C(CO)CO
inactive: [12] 93 % of control | [13] 100 % of control | [17] 100 % of control
